Entries after “also recorded” stand apart in the source; their conditions may differ. Like-named read-outs stand apart in the source and are kept apart here.
Experiments:
VZV-ORF57-Luc [1] = assay: NuSkin mouse model of VZV replication (adult human skin xenografts), bioluminescence imaging; type: in vivo, Athymic Nude mice; conditions: for in vivo antiviral activity against VZV (in words): s.c. once daily days 3-9 post-infection, equimolar to cidofovir 10 mg/kg; for dose effective in vivo: subcutaneous (s.c.); for activity compared with cidofovir in repeated in vivo studies: subcutaneous (s.c.) as well as oral route, cidofovir 10 mg/Kg
Protocol: Mice were treated with vehicle or drugs, and virus yield was measured by bioluminescence imaging. VZV growth rate for individual mice (symbols) and the average for the group (bars) are shown in (A) and (B). […] The overall significance on day 10 post-inoculation (DPI 10) is p=0.0352 (one-way ANOVA). ** p<0.01 for OED-L-BHDU & POM-L-BHDU and (student's t test with Welch's correction). Cidofovir group (i.p.) has an average fold change of 2-5 on DPI 10. (B).

[2] = tested on: human fibroblast (HFFs) cells; type: cell-based
Protocol: The cellular toxicity of synthesized analogs was determined on low passage of human fibroblast (HFFs) cells by performing 72 h of neutral red dye uptake and MTT cell proliferation assays.

VZV-ORF57-Luc [3] = assay: Antiviral activity in ARPE-19 cells infected with VZV-ORF57-Luc; type: cell-based, Varicella-zoster virus; conditions: for in vitro anti-VZV activity (in words): VZV-ORF57-Luc
Protocol: To enhance the antiviral activity octadecyloxyethyl-L-BHDU (ODE-L-BHDU, 5) and hexadecyloxypropyl-L-BHDU (HDP-L-BHDU, 6), POM-L-BHDU (8), and POC-L-BDHU (14) (FIGS. 1-3, Schemes 1-3) prodrugs were synthesized with modifications to increase bioavailability and cell penetration. Their antiviral activity was evaluated in ARPE-19 cells infected with VZV-ORF57-Luc, a new reporter virus.

[4] = target: T1, dihydropyridine dehydrogenase (Homo sapiens, UniProt Q12882); conditions: cited from earlier work
T1 sequence (Q12882 4-1025): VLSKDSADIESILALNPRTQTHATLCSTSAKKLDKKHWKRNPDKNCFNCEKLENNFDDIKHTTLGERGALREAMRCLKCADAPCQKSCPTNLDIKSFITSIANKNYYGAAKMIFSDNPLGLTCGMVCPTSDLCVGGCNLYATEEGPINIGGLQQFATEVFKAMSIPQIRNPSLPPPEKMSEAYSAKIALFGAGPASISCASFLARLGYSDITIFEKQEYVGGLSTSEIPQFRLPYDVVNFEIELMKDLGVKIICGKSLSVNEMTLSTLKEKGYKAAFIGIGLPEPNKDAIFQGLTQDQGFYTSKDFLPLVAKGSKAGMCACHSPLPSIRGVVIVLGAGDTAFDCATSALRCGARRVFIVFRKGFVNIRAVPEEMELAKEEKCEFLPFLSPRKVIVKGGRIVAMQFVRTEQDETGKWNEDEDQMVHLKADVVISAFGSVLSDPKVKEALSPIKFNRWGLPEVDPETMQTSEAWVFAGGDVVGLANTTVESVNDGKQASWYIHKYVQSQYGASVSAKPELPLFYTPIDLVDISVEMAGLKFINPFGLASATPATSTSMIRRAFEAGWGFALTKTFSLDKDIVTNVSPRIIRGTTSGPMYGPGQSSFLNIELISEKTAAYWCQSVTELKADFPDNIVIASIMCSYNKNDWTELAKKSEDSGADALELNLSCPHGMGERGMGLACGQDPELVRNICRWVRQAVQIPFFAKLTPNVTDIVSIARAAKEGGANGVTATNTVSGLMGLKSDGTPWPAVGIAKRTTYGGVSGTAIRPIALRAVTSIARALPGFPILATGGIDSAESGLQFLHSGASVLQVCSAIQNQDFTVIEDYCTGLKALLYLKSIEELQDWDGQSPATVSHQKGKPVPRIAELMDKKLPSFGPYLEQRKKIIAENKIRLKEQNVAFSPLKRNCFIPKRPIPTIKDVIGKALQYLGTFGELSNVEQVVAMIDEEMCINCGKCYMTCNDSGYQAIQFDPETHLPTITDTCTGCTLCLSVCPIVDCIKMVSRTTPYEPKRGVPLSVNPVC

VZV [5] = conditions: cited from earlier work; for in vivo reduction in VZV growth compared to ACV and VACV: previous in vivo studies
VZV-BAC-Luc = conditions: previous assay, HFFs infected with VZV-BAC-Luc; read-out: EC50 against VZV in HFFs; cited from earlier work
HSV-2 = assay: Anti-HSV-2 activity in Vero cells, bioluminescence imaging; type: cell-based, herpes simplex virus
Protocol: HSV-2 yield was determined by bioluminescence imaging. Each point represents the mean±standard deviation of a triplicate sample
Furthermore, antiviral activity of these analogs was tested in vitro against the HSV-2 (genital herpes) in Vero cells using acyclovir as a standard drug reference. […] All other analogs, including L-BDHU, were found ineffective against the HSV-2 (FIG. 11, Table 3). After these findings, it was determined that POM-L-BHDU […] has potential against the HSV-1 & HSV-2. Further in vivo evaluation of POM prodrug of the L-BDHU will confirm activity.

HSV-1 = assay: Anti-HSV-1 activity in Vero cells; type: cell-based, herpes simplex virus
Protocol: Additionally, all synthesized compounds were also tested in vitro against herpes simplex viruses (HSV-1, oral herpes) in Vero cells, FIG. 8.

[6] = cited from earlier work
HSV1 = assay: Topical treatment of HSV1 in human skin explant model; conditions: formulated in cocoa butter
Text: (§1) Each compound was formulated in Cocoa Butter and applied topically. POM was formulated in equimolar concentrations to 0.1% L-BHDU.

VZV [7] = assay: Topical treatment of VZV in human skin explant model; conditions: formulated in cocoa butter
Text: as §1

[8] = tested on: human foreskin fibroblast (HFFS) cells; conditions: cited from earlier work
[9] = tested on: cell-associated VZV-ORF57-Luc; assay: Antiviral screening against cell-associated VZV-ORF57-Luc in ARPE-19 cells; type: cell-based, Varicella-zoster virus
Protocol: Cidofovir and acyclovir are positive controls. Each symbol represents the average of 6 replicate wells; the line is the best fit curve (error bars omitted for clarity).
These studies were performed in the same manner as the efficacy studies described above, except cell-associated VZV-ORF57-Luc, VZV-ORF57-ΔTK, VZV-ORF57-ΔTS and VZV-ORF57-ΔTKTS were used to infect ARPE-19 cells. As before, CDV and ACV were used as positive controls.

[10] = Tolerability and weight change in NuSkin mice; conditions: male and female mice
[11] = read-out: EC50 against VZV-ORF57-Luc

## Nc1ccn(C[C@@H](CO)OCP(=O)(O)O)c(=O)n1 [Cidofovir, cidofovir, reference compound]
VZV-ORF57-Luc [1]; i.p., day 10 post-inoculation
  average fold change on DPI 10: 2-5 fold

## CCCCCCCCCCCCCCCCOCCCOP(=O)(O)OC[C@H]1OC[C@@H](n2cc(/C=C/Br)c(=O)[nH]c2=O)O1 [HDP-L-BHDU, hexadecyloxypropyl-L-BHDU]
[2]
  CC50: 10000 nM
VZV-ORF57-Luc [3]
  in vitro anti-VZV activity (in words): lower antiviral activity relative to L-BHDU; also recorded: lower in vitro activity than the parental molecule
VZV-ORF57-Luc [3]; [11]
  EC50: 900 nM

## O=c1[nH]c(=O)n([C@@H]2CO[C@H](CO)O2)cc1/C=C/Br [L-BHDU]
[4]
  inhibition of dihydropyridine dehydrogenase activity: does not inhibit
VZV-ORF57-Luc [1]
  in vivo antiviral activity against VZV (in words): ineffective
VZV [5]; human fetal skin
  dose effective in SCID-Hu mouse model of VZV replication: 15 mg/kg
VZV [5]
  in vivo reduction in VZV growth compared to ACV and VACV: significant reduction in VZV growth
[2]
  CC50: > 100000 nM
  effect on cellular proliferation: did not affect cellular proliferation
VZV-ORF57-Luc [3]; read-out: EC50 against VZV in ARPE-19s
  EC50: 22 nM
VZV-ORF57-Luc [3]; [11]
  EC50: 22 nM
VZV-BAC-Luc
  EC50: 220 nM
HSV-2; listed as L-BDHU
  anti-HSV-2 activity (in words): ineffective; also recorded: inactive
HSV-1
  anti-HSV-1 activity (in words): good activity
HSV-1; read-out: EC50 against HSV-1
  EC50: 7 nM
Vero Cells
  CC50: > 100000 nM
[6]
  levels in mouse organs: reached high levels in mouse organs but not in the brain
[6]; mouse, in vivo
  well tolerated dose: up to 150 mg/kg
HSV1
  prevention of HSV1 spread in adult human skin: highly effective
VZV [7]
  prevention of VZV spread in adult human skin: highly effective

## CC(C)C(N)C(=O)OCC1OCC(n2cc(/C=C/Br)c(=O)[nH]c2=O)O1 [L-valyl-L-BHDU]
VZV [5]
  in vivo reduction in VZV growth compared to ACV and VACV: significant reduction in VZV growth
VZV-BAC-Luc
  EC50: 30 nM
[8]
  CC50: 200000 nM

## CCCCCCCCCCCCCCCCCCOCCOP(=O)(O)OC[C@H]1OC[C@@H](n2cc(/C=C/Br)c(=O)[nH]c2=O)O1 [ODE-L-BHDU, L-BHDU-5′-[(2-octadecyloxyethyl)phosphate]]
VZV-ORF57-Luc [1]
  in vivo antiviral activity against VZV (in words): better antiviral activity in comparison to L-BHDU; also recorded: most active
  dose effective in vivo: around 25 mg/kg/day
  activity compared with cidofovir in repeated in vivo studies: more active than the cidofovir
VZV-ORF57-Luc [1]; listed as OED-L-BHDU
  in vivo antiviral activity against VZV (in words): superior antiviral potency compared to L-BHDU; also recorded: significantly enhanced in vivo antiviral activity in comparison to L-BHDU
VZV-ORF57-Luc [3]
  in vitro anti-VZV activity (in words): lower antiviral activity relative to L-BHDU
VZV-ORF57-Luc [3]; listed as OED-L-BHDU
  in vitro anti-VZV activity (in words): lower in vitro activity than the parental molecule
VZV-ORF57-Luc [3]; [11]
  EC50: 68 nM
HSV-1
  anti-HSV-1 activity (in words): good activity
HSV-1; read-out: EC50 against HSV-1
  EC50: 757 nM
Vero Cells
  concentration at which cellular cytotoxicity was exhibited: 20 µM
[9]
  potency against cell-associated VZV-ORF57-Luc compared to CDV or ACV: less potent compared to CDV
[10]
  tolerability / toxicity in mice: without significant toxicity
[10]; listed as OED-L-BHDU
  tolerability / toxicity in mice: well-tolerated

## CC(C)OC(=O)OCOP(=O)(OCOC(=O)OC(C)C)OC[C@H]1OC[C@@H](n2cc(/C=C/Br)c(=O)[nH]c2=O)O1 [POC-L-BHDU, Bis (POC) prodrug L-BHDU]
VZV-ORF57-Luc [1]
  in vivo antiviral activity against VZV (in words): ineffective
VZV-ORF57-Luc [1]; listed as POC (14)
  in vivo antiviral activity against VZV (in words): better in vitro and in vivo activity in comparison to L-BDHU
[2]
  CC50: > 100000 nM
  effect on cellular proliferation: did not affect cellular proliferation
VZV-ORF57-Luc [3]
  in vitro anti-VZV activity (in words): significant anti-VZV activity; also recorded: good antiviral efficacy
VZV-ORF57-Luc [3]; listed as POC (14)
  in vitro anti-VZV activity (in words): better in vitro and in vivo activity in comparison to L-BDHU
VZV-ORF57-Luc [3]; [11]
  EC50: 34 nM
HSV-1
  anti-HSV-1 activity (in words): good activity
HSV-1; read-out: EC50 against HSV-1
  EC50: 26 nM
Vero Cells
  CC50: > 100000 nM

## CC(C)(C)C(=O)OCOP(=O)(OCOC(=O)C(C)(C)C)OC[C@H]1OC[C@@H](n2cc(/C=C/Br)c(=O)[nH]c2=O)O1 [POM-L-BHDU]
VZV-ORF57-Luc [1]; oral, FIG. 6B
  oral in vivo effectiveness in comparison to cidofovir (ip route): orally equal effective in comparison to cidofovir
VZV-ORF57-Luc [1]
  in vivo antiviral activity against VZV (in words): most active; also recorded: superior antiviral potency compared to L-BHDU; also recorded: retained its antiviral potency; also recorded: better activity compared to parental molecule
  dose effective in vivo: around 25 mg/kg/day
  activity compared with cidofovir in repeated in vivo studies: more active than the cidofovir
VZV-ORF57-Luc [1]; listed as POM (8)
  in vivo antiviral activity against VZV (in words): better in vitro and in vivo activity in comparison to L-BDHU
[2]
  CC50: > 100000 nM
  effect on cellular proliferation: did not affect cellular proliferation
VZV-ORF57-Luc [3]
  in vitro anti-VZV activity (in words): significant anti-VZV activity; also recorded: good antiviral efficacy; also recorded: enhanced antiviral potency in comparison to L-BHDU
VZV-ORF57-Luc [3]; listed as POM (8)
  in vitro anti-VZV activity (in words): better in vitro and in vivo activity in comparison to L-BDHU
HSV-2
  anti-HSV-2 activity (in words): active
HSV-2; listed as POM-L-BDHU
  anti-HSV-2 activity (in words): significant activity
HSV-2; read-out: EC50 against HSV-2
  EC50: 1400 nM
HSV-1; read-out: EC50 against HSV-1
  EC50: 28 nM
Vero Cells
  CC50: > 100000 nM
HSV1
  prevention of HSV1 spread in adult human skin: highly effective
HSV1; listed as L-BHDU-POM
  prevention of HSV1 spread in adult human skin: highly effective; also recorded: more effective than topical acyclovir 0.5%
VZV [7]
  prevention of VZV spread in adult human skin: highly effective
[10]
  tolerability / toxicity in mice: without significant toxicity
[10]; listed as POM-L-BDHU
  tolerability / toxicity in mice: well-tolerated

## Nc1nc2c(ncn2COCCO)c(=O)[nH]1 [acyclovir, reference compound]
HSV-1; Human alphaherpesvirus 1, read-out: EC50 against HSV-1
  EC50: 73.6 nM

Reference: US11945833B2, “Prodrugs of L-BHDU and methods of treating viral infections” (priority 2021, dated 2024)
